The source of these data is patent publication US20240099951A1, “HAIR GROWTH STIMULANT” (ADJUVANT HOLDINGS CO., LTD., priority 2020, published 2024).

For the assay, the system named is hair groups derived from C57BL/6N dorsal body hair skin transplanted in Balb/c nu/nu mice. In words: Evaluation of hair-diameter-increasing activity (hair shafts grown after third cycle of Exemplary Test 1). Format: in vivo. The protocol: Dorsal body hair skin was collected from C57BL/6N mice (SLC) of age 7 to 8 weeks in accordance with a procedure similar to that at Exemplary Test 1, above, the drug being applied after the hair groups derived from the dorsal body hair skin that had been fabricated were transplanted in Balb/c nu/nu mice (SLC) of age 4 to 6 weeks. Testing and breeding of animals complied with pertinent laws, regulations, ordinances, and guidelines, and was performed with the approval of the Experimental Ethics Review Board of the Institute of Physical and Chemical Research. The following three solutions were used during testing. • 60% aqueous ethanol solution • 5% minoxidil solution • 1% phytosphingosine solution Measurement of increase in hair diameter was carried out using hair shafts which had grown following completion of the third cycle at Exemplary Test 1. Of the hair shafts that were collected, two zigzag hairs were used. Three locations were selected in regions where diameter was large in the central portions thereof using a square 100 μm on a side. Measurement of selected regions was carried out at five locations. Hairs as they existed following application of the drug were used for measurement of hair shaft diameter.

For `CCCCCCCCCCCCCC[C@@H](O)[C@@H](O)[C@@H](N)CO` [phytosphingosine], the Hair shaft diameter (1% phytosphingosine solution applied, hair shafts after third cycle) came out at 20.15 μm. Moreover, the “hair shaft diameter as percent of control” value (1% phytosphingosine solution vs 60% aqueous ethanol solution) turned out to be 127%.
